The test concerns the target VMAT2 (Homo sapiens, UniProt Q05940). Put plainly: Human [18F]AV-133 PET target occupancy. Set-up: from tissue; host or cells: brain of healthy male volunteers (caudate, putamen). As to conditions: for URF (upregulation factor): upregulation model. In kind it is in vivo. An excerpt: The human PET study was approved by the IRB (Approval number: Pro00037529). All participants gave their written informed consent prior to participation in the study. Twelve healthy male subjects were enrolled in cohorts of 2–4 subjects each. Subjects were 29–54 years of age (mean of 43.2 years), and the study had standard inclusion/exclusion criteria, with attention to avoiding drugs which may interfere with the [^18F]AV-133 measurements or with NBI-750142 metabolism.
Subjects fasted during the study and received a small, predefined snack at least 2 h prior to oral dosing of NBI-750142. Consumption of alcohol, caffeine, nicotine or cannabis products, and grapefruit or grapefruit juice was prohibited during the study. One PET scan occurred ~1.5 h following administration of NBI-750142, and a second ~18 h post NBI-750142. These scans are referred to as “T1” and “T2,” respectively, throughout this study (Supplementary Fig. 1). T1 scans were timed to occur at approximately the time to reach maximal plasma concentration, Tmax, and provide the closest comparison to the NHP PET measurements. T2 scans should contribute data points to the lower NBI-750142 concentration portion of the PK-%TO curve and potentially reveal dose-response hysteresis (reviewed in ref. [22]). A total of five cohorts were enrolled in the study in an adaptive design, with two subjects enrolled in each cohort, except for four subjects in cohort 5. NBI-750142 doses in these cohorts ranged from 10 to 200 mg. Blood samples were obtained from each participant immediately before [^18F]AV-133 injection and just before the end of the PET scan in order to quantify plasma concentration of NBI-750142. The Cave derived from these two values was used to compare against %TO.
Prior to the radiotracer injection and PET, a low-dose CT scan was collected for attenuation correction. Subjects were administered a single dose of [^18F]AV-133 intravenously over 3 min using an infusion pump (~3.33 mL per min) through a venous catheter followed by a 10 mL saline flush. Dynamic PET imaging of the brain was acquired over 120 min following radiotracer injection on a Siemens Biograph 6 PET/CT camera with the following frame times: 6 × 30 s, 4 × 1 min, 4 × 2 min, 21 × 5 min (0–120 min). Images were reconstructed with a 168 × 168 × 81 matrix (pixel size of 2.03 mm × 2.03 mm) using an iterative reconstruction algorithm (OSEM 4 iterations, 16 subsets) and a post hoc Gaussian filter FWHM = 3 mm. Standard corrections for random, scatter, system dead time, and attenuation provided by the camera manufacturer were performed. A T1 MRI scan was acquired from eligible subjects as part of the screening visit, to identify and delineate brain anatomical regions of interest for individual PET images. MRI scans were obtained on a Siemens Espree 1.5 Tesla clinical magnet.
Reconstructed PET images were motion and decay corrected, realigned to the subject MRI and subsequently normalized into standard MNI (Montreal Neurological Institute) space using PMOD. Volumes of interest (VOIs) were defined from a template (Hammers, N30R83). Average activity concentration within each VOI was determined and time activity curves (TACs) were generated. TACs were extracted from the following VOIs: caudate and putamen (striatum), and occipital cortex. BPND, the primary outcome measure, was estimated with noninvasive Logan graphical analysis […] 1. The relationship between %TO (averaged between caudate and putamen) and average plasma concentration during the scan was analyzed with an Emax model (Eq. 2) and an upregulation model (Eq. 4), which incorporates an upregulation factor (URF; [24]).4 %TO=Drug−EC50Drug/Drug+EC50(URF−1)/Drug+EC50

Read-outs that look alike come from different tables or passages of the source.

Sequence of VMAT2 (Q05940 whole entry): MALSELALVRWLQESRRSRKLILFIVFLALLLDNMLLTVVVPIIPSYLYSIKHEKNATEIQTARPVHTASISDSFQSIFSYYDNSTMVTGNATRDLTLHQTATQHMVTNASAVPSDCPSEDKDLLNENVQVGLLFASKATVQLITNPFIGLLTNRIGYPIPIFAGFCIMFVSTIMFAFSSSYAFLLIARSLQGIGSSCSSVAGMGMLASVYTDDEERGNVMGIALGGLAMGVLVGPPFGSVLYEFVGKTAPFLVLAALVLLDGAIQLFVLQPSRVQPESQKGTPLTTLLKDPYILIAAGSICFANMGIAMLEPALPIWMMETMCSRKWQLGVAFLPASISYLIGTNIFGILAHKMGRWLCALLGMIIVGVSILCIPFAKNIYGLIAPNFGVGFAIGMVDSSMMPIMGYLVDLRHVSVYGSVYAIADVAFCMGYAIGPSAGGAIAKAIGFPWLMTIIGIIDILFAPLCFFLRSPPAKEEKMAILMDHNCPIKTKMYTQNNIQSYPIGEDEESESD

With `COc1cc2c(cc1OC)[C@H]1CN(C)[C@H](CC(C)(C)C)CN1CC2` [NBI-750142], the “EC50:Ki Ratio” value (Human, free PET EC50 over in vitro Ki) stood at 1.4. The EC50 by setting is: (T1 and T2, occipital cortex reference, read-out: EC50, Emax model (converted)) 0.105 µM; (T1 and T2, white matter reference (post hoc), read-out: EC50, Emax model (converted)) 0.0932 µM; (T1 and T2, white matter reference (post hoc), read-out: EC50, upregulation model (converted)) 0.0331 µM; (T1 and T2 data, occipital cortex reference, read-out: EC50, upregulation model (converted)) 0.0189 µM; (T1 scans (~[…] post oral dose), Emax model, occipital cortex reference, read-out: total EC50 (average total plasma concentration vs %TO) (converted)) 0.0758 µM; (T1 scans, Emax model, WM-derived BPND (post hoc), read-out: total EC50, white matter reference (converted)) 0.0746 µM. Also, the EC50 (T1 scans, Emax model, total concentration multiplied by fu_p, read-out: free EC50 (free plasma concentration vs %TO) (converted)) is 0.0379 µM. For the same molecule, the “URF (upregulation factor)” value is 1.9 (T1 and T2, white matter reference); 2.8 (T1 and T2 data, occipital cortex reference). Besides, the “VMAT2 occupancy at T2” value (T2 scans ~18 h post NBI-750142, occipital cortex reference) was “negative occupancy”. Besides, the “average striatal occupancy at T2” value (T2 time points (~18 h post dose), WM-derived values) amounted to 0.09%.

For the origin of these results see PMC12089418, “Quantifying VMAT2 target occupancy at effective valbenazine doses and comparing to a novel VMAT2 inhibitor: a translational PET study” (Neuropsychopharmacology, 2025).
